According to patent US8716231B2, “Use of benzo-fused heterocycle sulfamide derivatives for the treatment of pain” (Janssen Pharmaceutica NV, priority 2005, dated 2014):

tested on: not given; test: not given; settings: not given

| melting point [°C] | SMILES |
| --- | --- |
| 100 to 101 | NS(=O)(=O)NCC1CCc2ccccc2O1 (stereo not drawn) |
| 101 to 103 | NS(=O)(=O)NCCC1COc2ccccc2O1 (stereo not drawn) |
| 119 to 121 | NS(=O)(=O)NC[C@H]1COc2cc(Cl)c(Cl)cc2O1 |
| 76 to 78 | CN(C)S(=O)(=O)NCC1COc2ccccc2O1 (stereo not drawn) |
| 97 to 98 | CN(CC1COc2ccccc2O1)S(N)(=O)=O (stereo not drawn) |

tested on: Taxol®-induced mechanical allodynia; test: Taxol Induced Peripheral Neuropathy Model (pilot), Von Frey testing; assay type: in vivo, Sprague-Dawley rats; settings: Taxol 2 mg/kg i.p. days 1, 3, 5, 7 + HPMC vehicle; day 12 (baseline 16.42±2.14 g)
Protocol: In addition, the compound's effects on spontaneous locomotor activity was measured.
The animals were housed in polycarbonate plastic cages, 2 animals per cage, at a temperature of 18-26° C., 30-70% humidity, 12-hour light/dark cycle, with food and water available ad libityum.
On days 1, 3, 5, and 7, the rats received an ip (intraperitoneal) injection of Taxol® (2 mg/kg).
Two behavioral tests were performed: measurement of tactile sensitivity and spontaneous locomotor activity. At baseline and on Days 5 and 12 post-Taxol® injection, the animals underwent Von Frey testing for mechanical allodynia (according to the procedure as described in Chaplan, S R, Bach, F W, Pogrel, J W, Chung, J M, Yaksh, T L. Quantitative assessment of tactile allodynia in the rat paw. J Neurosci Meth, 53:55-63, 1994). Tactile sensitivity (i.e. mechanical allodynia) was measured using calibrated filaments touched to the plantar surface of the affected limb to determine paw withdrawal threshold. Briefly, the rats were placed in a Plexiglas cage with a wire mesh bottom and allowed to acclimate for 10 minutes. Once the animals settled, the plantar surface of the right hind paw was touched with a 2.0 g von Frey filament. […] Data were analyzed using two-way ANOVA, one-way ANOVA and Dunnett's test, with statistical significance at p<0.05.

| paw withdrawal threshold (mechanical allodynia) [g] | SMILES |
| --- | --- |
| 12.11 ± 4.92 | CC(=O)O[C@H]1C(=O)[C@@]2(C)[C@H]([C@H](OC(=O)c3ccccc3)[C@]3(O)C[C@H](OC(=O)[C@H](O)[C@@H](NC(=O)c4ccccc4)c4ccccc4)C(C)=C1C3(C)C)[C@]1(OC(C)=O)CO[C@@H]1C[C@@H]2O [Taxol®, paclitaxel, reference compound] |
